Measurements as given in patent publication US11672786B2, “Methods of treating diseases associated with repeat instability” (The Hospital for Sick Children, priority 2016, dated 2023).

Legend:
[1] = system: Slip-outs of 3, 5, 11 or 15 CAG repeats; experiment: band-shift NA binding to slip-outs of 3, 5, 11 or 15 CAG repeats; conditions: NA 15 μM and 50 μM
Procedure: Slip-outs of 3, 5, 11 or 15 CAG repeats extruded as a single slip-out from a fully base-paired backbone (see top panel, DNAs sequence and structure). One pmol of each substrate was mixed with increasing concentrations of NA (15 μM and 50 μM) and resolved on 4% polyacrylamide gels. All lanes are from the same gel, and they were separated for clarity. NA-DNA complexes are shown by brackets, free DNA is indicated by arrowheads. For the linear substrate, there is no NA binding (white arrowheads); at the higher concentration of NA, a small decrease of the short slip-outs DNAs (3 and 5 repeats) is observed (grey arrowheads), but it is not possible to define a clear shifted band; band-shift is evident for the (CAG)11 and (CAG)15 slip-out DNAs (black arrowheads). The relative mobility shift was measured (graph panel) as the ratio of the migration distance of each NA-DNA complex to the migration distance of the free DNA. The migration distance was measured from the well to a consistent centre point of each band. Histograms indicate the mean of three independent experiments and the corresponding standard deviation. P-values were calculated by Student's t test.

HT1080-(CAG)850 cells = experiment: cell toxicity, WST-1 assay; conditions: treated with NA for 72 hr
Procedure: Scale bar represents 20 μm.
The construction of the HT1080-(CAG)850 cell model was described previously (Sathasivam et al., 1997, Hum. Genet., 99:692-5). Briefly, HT1080 (ATCC) human fibrosarcoma cells were co-transfected with a plasmid (LC15-R) containing 800-850 (CTG)●(CAG) repeats (Nakatani et al., 2005, Nat. Chem. Biol., 1:39-43) and a plasmid encoding PhiC31 integrase. Transfection was performed with a Nucleofector (Lonza, Basel, Switzerland), and stably transfected clones were selected with puromycin. The HT1080-non transcribing (CAG)850 cell model was established by transfecting a plasmid modified from pLC16 by adding a SV40 polyadenylation signal downstream of the repeats, instead of LC15-R. The HT1080-non-transcribing (CAG)850 cell model was established by transfecting a plasmid modified from pLC16 by inserting an additional SV40 polyadenylation signal downstream of the repeats (in addition to the original polyadenylation signals located upstream of the repeats), so that CAG/CTG repeats are floxed by transcription-terminator elements. The AttB-PhiC31 system has been widely used for single copy integration. […]

[2] = system: HPRT1 exons 2 and 3, HD primary fibroblast cell line GM09197; experiment: HPRT1 sequence analysis by SMRT-CCS sequencing (general mutagen test); format: cell-based, human
Description: Towards assessing whether NA-treatment acted as a general mutagen to sequences other than CAG slip-outs, the high read accuracy and depth of single molecule, real time, circular consensus sequencing (SMRT-CCS) was harnessed. Single-molecule sequencing was done on the HPRT1 gene—widely used as a surrogate indicator of the global effect of induced genetic variation. Single-molecule sequencing can detect mutations at frequencies below 0.5% with no false positives. Panel A of FIG. 13 is a schematic of HPRT1 sequencing for mutation detection. Briefly, cells were grown under identical conditions differing only by the addition of NA (50 μM) or saline, DNAs were isolated, HPRT1 exons 2 and 3 PCR amplified and sequenced. Panel B of FIG. 13 are graphs showing the comparison of sequence variations between NA-treated and saline-treated samples. We chose to compare the single-molecule sequence reads of individual X chromosome-linked HPRT1 alleles (exons 2 and 3, 2,897 nucleotides) from the HD patient-derived cells that had been NA- or saline-treated. In this manner, each read would represent a single cell. Graphs show the distribution of sequence variants by relative mutation rate between three experimental replicates of NA-treated and saline-treated cells sequenced with PacBio single-molecule long reads.
DNAs were extracted from three independent NA treatments of the HD primary fibroblast cell line GM09197 and from three independent untreated control cells. HPRT1 exons 2 and 3 were amplified using the high fidelity Platinum Taq DNA Polymerase (Invitrogen, Cat #11304) and the primers shown in Table 1. Amplification products were analyzed using single molecule, real-time (SMRT) sequencing on the PacBio RSII instrument (see FIG. 13A).
Specifically, a ˜2.8 kb PCR product spanning exons two and three of HPRT1 was sequenced for three replicates of HD patient-derived cells in both NA- and saline-treated colonies on a Pacific Biosciences (PacBio) RSII with P6-C4v2 chemistry, 360 minute movies, and one SMRT cell per replicate/treatment combination. Individual molecules from the original cell colony were represented by single long reads from the corresponding SMRT cell. PacBio's SMRTbell construct allows a single molecule to be sequenced one or more times in a single long read based on the number of “passes” the sequencing polymerase makes around the SMRTbell insert. An average of 99,023 distinct reads were sequenced per SMRT cell. The resulting long reads contained an average of ˜7 passes through the insert sequence. The average median insert length per SMRT cell was 2,873 bp. […] Based on these filters, an average of 1,343 consensus sequences per replicate/treatment pair were produced with a range of up to 2,402 sequences. […] To estimate the mutation rate for each replicate/treatment combination, the number of times a specific variant occurred was calculated between high-quality PacBio consensus reads at a specific position in the human reference (GRCh38) divided by the total number of high-quality reads aligned across each position. For each replicate, the relative mutation rate was calculated between NA- and saline-treated cells as the mutation rate for NA-treated cells minus the rate for saline-treated cells and identified excess mutation rates based on an absolute relative rate >0.5%. […]

naphthyridine-azaquinolone
NA binding by slip-out length (relative mobility shift) [1]: significantly better for longer than shorter CAG slip-outs | acute cytotoxicity (cell viability, WST-1) (HT1080-(CAG)850 cells): without causing acute cytotoxicity | distinct sites with extreme relative mutation rates, number ([2]; 50 μM NA, across 2,897 positions, control 84): 113 | distinct sites with extreme relative mutation rates, percent ([2]; 50 μM NA, control 2.9%): 3.9% | variants with extreme mutation rates (absolute relative rate >0.5%), number ([2]; 50 μM NA, of the 15,277 variants across three replicates, saline 101): 149 | variants with extreme mutation rates, percent ([2]; 50 μM NA, saline 0.7%): 1.0% | mutation rates NA- versus saline-treated ([2]; p=0.1083, two-sample Kolmogorov-Smirnov test): not significantly different
